Data taken from US20040185509A1, “Eosinophil prostaglandin d2 receptor assays” (priority 2001, published 2004).
Entries after “also recorded” stand apart in the source; their conditions may differ.

Assays:
[1] = system: purified human eosinophils; assay: Eosinophil morphology change by light microscopy; assay type: cell-based
Method: Purified eosinophils were incubated in RPMI 1640 media supplemented with 0.5% fetal bovine serum in the presence of the compound to be tested for 15 minutes in a 24-well dish. Light microscopy was performed with an inverted Axiovert 25 (Zeiss) and images were obtained with a 35 mm SLR camera (ARIA CONTAX, Kyocera corporation) using Kodak Elite Chrome 160T film.
Vehicle-treated eosinophils were spherical and only weakly adhered to the culture dish. […] This effect was seen on the majority of eosinophils from all donors analysed (n=20).

[2] = system: purified human eosinophils; assay: Eosinophil chemokinesis (chemotactic chamber without chemoattractant in the lower chamber); assay type: cell-based; details: for stimulation of eosinophil chemokinesis (result in words): FIG. 3: BW245C 1 μM, DK-PGD2 100 nM, PAF 100 nM, IL-5 1 ng/ml, PGE2, fluprostenol and latanoprost 1 μM; for increase in eosinophil chemokinesis: data not shown
Method: Purified eosinophils were resuspended at 3.0×10^6 cells per ml in RPMI 1640 medium supplemented with 0.5% (v/v) fetal bovine serum. Compounds to be tested were added from 1000× concentrated stock solutions to 100 μl of cells in a 1.5 ml centrifuge tube and incubated at room temperature for 5 minutes. 100 μl of treated cells were then added to the top half of a chemotactic chamber (6.5 mm Transwell, 3.0 μm polycarbonate membrane from Costar) and 600 μl of RPMI, supplemented with 0.5% (v/v) fetal bovine serum, was added to the bottom chamber. After a 2 hour incubation at 37° C. in a CO2 chamber, the top chamber was discarded and the number of cells that had migrated to the lower chamber was evaluated by counting the cells using an hematocytometer. For each condition tested, the number of migrating eosinophils in two chemotactic chambers was averaged.
Chemokinesis was measured by incubating eosinophils with PGD2 for 5 minutes prior to their loading in the upper chamber of a chemotactic unit lacking a chemoattractant in the lower chamber. PGD2 at a concentration of […] increased eosinophil chemokinesis by 6-fold compared to cells treated with vehicle only (FIG. 3). PGD2 at concentrations of 10 nM and 1 μM increased eosinophil chemokinesis by a factor of 5 and 9-fold respectively (data not shown).

[3] = system: purified human eosinophils; assay: In vitro eosinophil apoptosis assay (Annexin V/propidium iodide, flow cytometry); assay type: cell-based; details: for effect on eosinophil apoptosis / percentage of non-apoptotic eosinophils (result in words): 36 hours in culture, 1 μM, interleukin-5 at 1 ng/ml, FIG. 5
Method: Purified eosinophils were resuspended at 2.0×10^5 cells per ml in RPMI 1640 medium supplemented with 10% (v/v) fetal bovine serum, 2 mM glutamine, and 100 units of penicillin and streptomycin. Compounds to be tested were diluted 1:1000 to their final concentration and the cells were incubated at 37° C. in a CO2 chamber for 36 hours. The extent of apoptosis in the eosinophil population was evaluated using the TACS™ Annexin-V-FITC apoptosis detection kit (R&D systems). Non-apoptotic cells are not stained with either Annexin-V FITC or propidium iodide. Early apoptotic cells are stained with Annexin-V FITC but not propidium iodide (green fluorescence). Late apoptotic cells are stained with both Annexin-V FITC and propidium iodide (dual green and red fluorescence). Necrotic cells are only stained with propidium iodide (red fluoresecence). Labeled eosinophils were analyzed in a FACS Calibur system from Becton Dickinson.
The ability of PGD2 to modulate apoptosis in eosinophils was measured by quantifying the capacity of Annexin V to bind to phosphatidylserine on the outer membrane of apoptotic cells. (Koopman, et al., Blood 84:1415, 1994.) Necrotic cell death was determined by propidium iodide uptake. (Darzynkiewicz, et al., Cytometry 13:795, 1992.) Annexin V-FITC and propidium iodide staining of eosinophils was evaluated by FACS analysis.

eosinophils = assay: Eosinophil chemotaxis (agent in the bottom chamber of the chemotactic unit); assay type: cell-based, human; details: data not shown
Method: Chemotaxis was measured by adding PGD2 to the bottom chamber of a chemotactic unit containing eosinophils in the top chamber.

[4] = system: purified human eosinophils; assay: Eosinophil degranulation (release of ECP into the media, radioimmunoassay); assay type: cell-based; details: for release of ECP from eosinophils (result in words): FIG. 4: DK-PGD2 100 nM, BW245C 1 μM, FP and EP agonists 1 μM
Method: Purified eosinophils were resuspended at 3.0×10^6 cells per ml in RPMI 1640 medium supplemented with 0.5% (v/v) fetal bovine serum. Compounds to be tested were diluted 1:1000 to their final concentration in 300 μl of cells in a 1.5 ml centrifuge tube. The cells were immediately transferred to a 24-well plate. After an 1 hour incubation at 37° C. in a CO2 chamber, the cells were removed by centrifugation (4° C., 300× g, 10 minutes). Eosinophil cationic protein (ECP) in the supernatant was quantified by a double antibody radioimmunoassay (Pharmacia) following the manufacturer's protocol.
Degranulation of eosinophils was assayed by challenging freshly isolated eosinophils with PGD2 and measuring release of the eosinophil cationic protein (ECP) into the media using an ECP-specific radioimmunoassay.

[5] = 15 minutes, FIG. 2: DK-PGD2 10 nM, PAF 100 nM, IL-5 1 ng/ml

O=C(O)CCC/C=C\C[C@@H]1[C@@H](/C=C/[C@@H](O)COc2cccc(C(F)(F)F)c2)[C@H](O)C[C@@H]1O (racemic) [fluprostenol]
change in eosinophil morphology ([1]; μM doses, data not shown): did not cause, even at μM doses, any alterations of eosinophil morphology | stimulation of eosinophil chemokinesis (result in words) [2]: failed to modulate eosinophil migration | effect on eosinophil apoptosis / percentage of non-apoptotic eosinophils (result in words) [3]: not significant

CCCCC[C@H](O)/C=C/[C@H]1C(=O)C[C@H](O)[C@@H]1C/C=C\CCCC(=O)O [PGD2, Prostanglandin D2]
morphology change after a second PGD2 challenge ([1]; PGD2-treated eosinophils, data not shown): resistant to morphology changes after a second PGD2 challenge | change in eosinophil morphology ([1]; PGD2 <10 nM, within minutes, n=20 donors): induced dramatic changes in cell morphology | reversion of treated eosinophils to spherical shape ([1]; after PGD2 treatment): reverted to a spherical shape within six hours | chemotactic (chemoattractant) effect on eosinophils (eosinophils; PGD2 added to the bottom chamber): not observed to exert a chemotatic effect; also recorded: did not attract eosinophils to the lower chamber | chemotactic response of pre-incubated eosinophils to PAF or eotaxin (eosinophils; pre-incubation up to 1 μM for 5 minutes to 18 hours): did not have an altered chemotactic response | increase in eosinophil chemokinesis ([2]; 10 nM): 5 fold | increase in eosinophil chemokinesis ([2]; 1 μM): 9 fold | increase in eosinophil chemokinesis compared to cells treated with vehicle only ([2]; 100 mM (so in the source), 5 minutes pre-treatment, 2 hours migration, FIG. 3): 6 fold | stimulation of eosinophil chemokinesis (result in words) [2]: increased cell motility in the absence of a chemical gradient | effect on eosinophil apoptosis / percentage of non-apoptotic eosinophils (result in words) [3]: weak inhibitor of apoptotic cell death | release of ECP from eosinophils into the media ([4]; 10 to 100 nM, 1 hour, FIG. 4): significantly increased the release of ECP | release of the granular protein EDN from eosinophils ([4]; after PGD2 challenge, data not shown): observed the release from eosinophils of another granular protein, EDN | extent of ECP release relative to PAF ([4]; average over donors): about half that seen with PAF

CCCCCC(=O)CCC1C(=O)CC(O)C1C/C=C\CCCC(=O)O (stereo not drawn) [DK-PGD2, 13,14-dihydro-15-keto-PGD2]
change in eosinophil morphology [1, 5]: induced a morphological change identical to that observed with PGD2 | stimulation of eosinophil chemokinesis (result in words) [2]: effective in stimulating eosinophil chemokinesis | effect on eosinophil apoptosis / percentage of non-apoptotic eosinophils (result in words) [3]: no significant effect | release of ECP from eosinophils (result in words) ([4]; 1 hour): significantly increased the release of ECP

CC(C)OC(=O)CCC/C=C\C[C@@H]1[C@@H](CC[C@@H](O)CCc2ccccc2)[C@H](O)C[C@@H]1O [latanoprost]
change in eosinophil morphology ([1]; μM doses, data not shown): did not cause, even at μM doses, any alterations of eosinophil morphology | stimulation of eosinophil chemokinesis (result in words) [2]: failed to modulate eosinophil migration | effect on eosinophil apoptosis / percentage of non-apoptotic eosinophils (result in words) [3]: not significant

Il-5: Recombinant human interleukin-5 produced using a baculovirus system and purified by FPLC
change in eosinophil morphology [1, 5]: lead to a rapid change in eosinophil morphology | stimulation of eosinophil chemokinesis (result in words) [2]: able to stimulate eosinophil chemokinesis | effect on eosinophil apoptosis / percentage of non-apoptotic eosinophils (result in words) [3]: increased the percentage of non-apoptotic eosinophils

CCCCC[C@H](O)/C=C/[C@H]1[C@H](O)CC(=O)[C@@H]1C/C=C\CCCC(=O)O [PGE2]
change in eosinophil morphology ([1]; μM doses, data not shown): did not cause, even at μM doses, any alterations of eosinophil morphology | stimulation of eosinophil chemokinesis (result in words) [2]: failed to modulate eosinophil migration | effect on eosinophil apoptosis / percentage of non-apoptotic eosinophils (result in words) [3]: increased the percentage of non-apoptotic eosinophils

O=C(O)CCCCCCC1C(=O)NC(=O)N1CCC(O)C1CCCCC1 (stereo not drawn) [BW245C]
change in eosinophil morphology ([1]; concentrations as high as 1 μM, panel 2c): did not affect eosinophil shape | stimulation of eosinophil chemokinesis (result in words) [2]: not BW245C was effective in stimulating eosinophil chemokinesis | increase in the percentage of non-apoptotic eosinophil ([3]; BW245C 1 μM, 36 hours, over vehicle treated population, 9 donors): 17% | release of ECP from eosinophils (result in words) ([4]; 1 hour): not BW245C, significantly increased the release of ECP
